Where two headings read alike, the source gives them in different places.
Tested on: Human lung fibroblasts, WI26 cell
Assay: Inhibitory effect on WI26 cells proliferation (CCK-8 assay)
Format: cell-based
Conditions: for inhibition at 15 µg/mL / inhibition at 30 µg/mL: Homo sapiens, Fibroblast, CCK-8; for toxicity to cell: based on dynamics of the inhibitory effect in FIG. 2; for inhibition at 30 µg/mL: read-out: inhibition rate, WI26 cells proliferation
Protocol: Cells: Human lung fibroblasts, WI26 cell;
Methods: wherein WI26 cells at 70-80% confluent were trysinized by 0.25% trypsin solution and seeded in 96-well plates at an initial density of 1×10^4 cells/mL. A medium was replaced 24 h later by the fresh with 15 μg/ml compound 1 and 1/1000 DMSO (drug treatment group 1 and its control) or 30 μg/ml compound 2 and 1/1000 DMSO (drug treatment group 2 and its control), then the medium was refreshed and cell viability was measured by using a CCK-8 method at day 0, 1, 2, 3, 4, 5, 6, respectively. Proliferation measurement was applied by adding 100 μL complete medium and 10 μL CCK-8 solutions to each well and incubating for 1 h. OD values of each well were measured at a primary wavelength λ=450 nm by using a Microplate Spectrophotometer. Data are shown as means±standard deviation (SD) of three independent experiments, each performed in triplicate.

Structure (SMILES)	inhibition at 15 µg/mL (15 μg/ml compound 1, day one) [%]	inhibition at 15 µg/mL (15 μg/ml compound 1, day six) [%]	toxicity to cell (normal human lung fibroblasts)	increase of inhibition compared with drug treatment group 2 (compound 2) (compound 1 at 15 μg/ml vs compound 2 at 30 μg/ml) [%]	effective concentration to inhibit normal human lung fibroblasts proliferation and activation (normal human lung fibroblasts) [µg/mL]	inhibition at 30 µg/mL (30 μg/ml compound 2, day one) [%]	inhibition at 30 µg/mL (30 μg/ml compound 2, day six) [%]
CC(C)=CCC[C@]1(C)Oc2ccc(C(N)=O)cc2C[C@@H]1O [compound 1, xiamenmycin C]	13.8	38	low toxicity	~10	15	–	–
CC(C)=CCC[C@]1(C)Oc2ccc(C(=O)N[C@H](C(=O)O)[C@@H](C)O)cc2C[C@@H]1O [compound 2, Xiamenmycin, reference compound]	–	–	low toxicity	–	–	10	28.5

From US10017489B2, “Method for preparing benzopyran compound and application thereof in treating pulmonary fibrosis” (SHANGHAI JIAO TONG UNIVERSITY, priority 2013, dated 2018)
